From US9566349B2, “Intestinal peptide targeting ligands” (Rutgers, The State University of New Jersey, priority 2010, dated 2017)
Square brackets hold non-standard residues; d marks the D form. Ends that are not written are not given here. Peptide text beside a SMILES is read from it. Nle = CCCC[C@H](N)C(=O)O

Columns and labels:
[1] = cited from earlier work
[2] = tested on: Caco-2 intestinal epithelial monolayer; assay: Transport of FITC-labeled peptide across Caco-2 intestinal epithelial monolayer; type: cell-based, human; conditions: Caco-2 monolayers, n=3, p<0.05
From the text: FIG. 2. Illustrates that peptide-labeled #12 (SEQ ID NO. 2) and its sequence-scrambled peptide FITC-12C1 were transported across Caco-2 intestinal epithelial monolayer in the presence and absence of chylomicron lipid-forming micelles.
Fluorescently labeled peptides according to SEQ ID NOS. 1 and 3 were synthesized. The peptide according to SEQ ID NO. […] The peptide according to SEQ ID NO. […] Therefore, the peptide according to SEQ ID NO. 2 aggregate may be viewed as a small nanoparticle displaying some peptides according to SEQ ID NO. 2 in correct orientation (i.e., on the surface not buried inside the nanoparticle). Even with this imperfect display, some increase in chylomicron lipid-dependent translocation across Caco-2 monolayers is still noticeable over a scrambled peptide according to SEQ ID NO. 1 (12C1) (FIG. 2). FITC-12 was 4.6-fold more efficiently transported than the sequence-scrambled control (FIG. 2).

[3] = Solubility and aggregation of peptide compared with SEQ ID NO. 1; type: physicochemical; conditions: Met and Cys replaced by norleucine and serine
From the text: Another example of such an amino acid sequence is TKWPVDN/eSPNVS (SEQ ID. NO. 6). In comparison with SEQ ID. NO. 1, replacement of the oxidation-prone amino acids (methionine and cysteine) with their biosteric counterparts (norleucine and serine respectively) in SEQ ID. NO. […] The peptide ligands of the instant invention also include variants or homologues of SEQ ID NO: 6, which may be at least 75% identical to SEQ ID NO: 6 or which may contain conservative substitutions of corresponding amino acid residues.

Row | Compound | LogP [1] | also measured
1 | Cc1cc(C2CCCCC2)n(O)c(=O)c1 [Ciclopirox] | 2.2 | 
2 | FITC-12: fluorescently (FITC) labeled peptide #12 (SEQ ID NO. 2) (QDDVQTWQRQPK; also: FITC label, position not given here) |  | transport efficiency relative to sequence-scrambled control (12C1) [2]: 4.6 fold
3 | C[C@@H]1CCO[C@H]2Cn3cc(C(=O)NCc4ccc(F)cc4F)c(=O)c(O)c3C(=O)N12 [Dolutegravir] | 1.0 | 
4 | CCCC[C@H](NC(=O)[C@H](CC(=O)O)NC(=O)[C@@H](NC(=O)[C@@H]1CCCN1C(=O)[C@H](Cc1c[nH]c2ccccc12)NC(=O)[C@H](CCCCN)NC(=O)[C@@H](N)[C@@H](C)O)C(C)C)C(=O)N[C@@H](CO)C(=O)N1CCC[C@H]1C(=O)N[C@@H](CC(N)=O)C(=O)N[C@H](C(=O)N[C@@H](CO)C(=O)O)C(C)C [SEQ ID. NO. 6, TKWPVDN/eSPNVS] (H-TKWPVD[Nle]SPNVS-OH; N-terminus and C-terminus assumed) |  | solubility in comparison with SEQ ID. NO. 1 [3]: better solubility
5 | CC(C)CN(C[C@@H](O)[C@H](Cc1ccccc1)NC(=O)O[C@H]1CO[C@H]2OCC[C@H]21)S(=O)(=O)c1ccc(N)cc1 [Darunavir] | 1.8 | 
